Here are results for eight compounds from patent US5998427A, “Androstenones” (Glaxo Wellcome Inc., priority 1998, dated 1999).

As a reminder, the Ki is a dissociation constant, usually derived from enzyme kinetics or from competition with a known ligand. A higher Ki goes with a looser hold on the target. As usually defined, the IC50 is the midpoint of a concentration-inhibition curve.

The subject of data set [1] is porcine granulosa cell 3β-hydroxy-Δ^5 -steroid dehydrogenase/3-keto-Δ^5 -steroid isomerase (3BHSD). Particulars: literature (Tan; Brandt and Levy); cited from earlier work.
For data set [2], the system named is bovine adrenal 3β-hydroxy-Δ^5 -steroid dehydrogenase/3-keto-Δ^5 -steroid isomerase (3BHSD). The following applies: literature (Tan; Brandt and Levy); cited from earlier work.
For data set [3] the following is noted: literature (McConnell; Rasmusson); cited from earlier work.
For another data set, the target named is T1, Human Adrenal 3BHSD (Homo sapiens, UniProt P26439).
T1 construct: microsomes derived from human adrenal tissues; from tissue; host or cells: human adrenal tissue (microsomes)
T1 sequence (P26439 1-372): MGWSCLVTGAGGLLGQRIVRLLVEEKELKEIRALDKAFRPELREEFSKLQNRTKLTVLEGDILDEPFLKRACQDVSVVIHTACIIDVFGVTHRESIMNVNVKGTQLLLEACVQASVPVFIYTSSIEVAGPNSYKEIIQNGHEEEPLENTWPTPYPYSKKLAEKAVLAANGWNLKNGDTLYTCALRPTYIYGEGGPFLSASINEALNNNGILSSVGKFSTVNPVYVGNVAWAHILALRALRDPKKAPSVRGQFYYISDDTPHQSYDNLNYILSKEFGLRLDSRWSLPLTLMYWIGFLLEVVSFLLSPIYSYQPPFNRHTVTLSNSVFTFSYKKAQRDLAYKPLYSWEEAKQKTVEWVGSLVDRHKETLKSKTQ
The experiment in a line: Inhibition of human adrenal 3β-hydroxy-Δ^5-steroid dehydrogenase/3-keto-Δ^5-steroid isomerase (conversion of DHEA to androstenedione, human adrenal microsomes). It is filed as biochemical. The following applies: pH 7.5, DHEA substrate, 1 mM NAD^+, 1 to 60 minutes. Here is the method:
Enzyme activities are measured using microsomes derived from human adrenal tissues. Microsomes were prepared by homogenization of the tissue followed by differential centrifugation of the homogenate. Microsome extracts were incubated with varying concentrations of dehydroepiandrosterone (DHEA), 1 mM NAD^+, and varying amounts of the compounds of Formula (I), i.e. a test compound, in pH 7.5 buffer for a period of time within the range of 1 to 60 minutes. Corresponding incubations were carried out with no test compound as a control study. The percentage of conversion of DHEA to androstenedione in the presence of test compounds compared to the corresponding conversion in the control study was estimated using HPLC with radiochemical detection.

For data set [4], the target named is T2, human type 2 5α-reductase (Homo sapiens, UniProt P31213).
T2 construct: made in house; host or cells: recombinant baculovirus infected SF9 cells (microsomes); prostate tissue of BPH patients is printed as an alternative
T2 sequence (P31213 1-254): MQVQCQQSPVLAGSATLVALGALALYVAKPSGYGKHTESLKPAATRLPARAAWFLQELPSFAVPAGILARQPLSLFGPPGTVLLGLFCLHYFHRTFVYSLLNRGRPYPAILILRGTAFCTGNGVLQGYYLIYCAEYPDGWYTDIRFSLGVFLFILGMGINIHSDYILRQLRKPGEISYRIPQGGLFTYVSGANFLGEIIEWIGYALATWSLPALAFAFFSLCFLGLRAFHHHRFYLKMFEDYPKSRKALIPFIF
Kind of data set: Inhibition of human type 2 5α-reductase (conversion of testosterone to DHT, microsomes). The data set is classed as biochemical. Particulars: pH 6.0, 8 nM testosterone, 20 min preincubation, 20-40 min; read-out: IC50 Human Type 2 5AR. How it is done:
(§1) Enzyme activities may be determined using microsomes derived from: 1) prostate tissue from benign prostatic hyperplasia (BPH) patients; 2) recombinant baculovirus infected SF9 cells that express human type 1 5α-reductase; or 3) recombinant baculovirus infected SF9 cells that express human type 2 5α-reductase. Microsomes were prepared by homogenization of the tissue or cells, followed by differential centrifugation of the homogenate. Microsome extracts were incubated with varying concentrations of [1,2,6,7-^3 H]-testosterone, 1 mM NADPH, and varying amounts of the compounds of formula (I,) i.e. a test compound, in buffer containing a NADPH regenerating system capable of maintaining NADPH concentrations for a period of time within the range 0.5-240 minutes. Corresponding incubations were carried out with no test compound as a control study.
(§2) For type 1 IC50 measurements, assay components except testosterone were preincubated for 10 minutes at pH 7.0, and following the addition of 100 nM testosterone the assays were allowed to proceed for 10-120 minutes. For type 2 IC50 measurements, assay components except testosterone were preincubated for 20 minutes at pH 6.0, and following the addition of 8 nM testosterone the assays were allowed to proceed for 20-40 minutes. […]

For data set [5], the target named is T3, human type 1 5α-reductase (Homo sapiens, UniProt P18405).
T3 construct: made in house; host or cells: recombinant baculovirus infected SF9 cells (microsomes)
T3 sequence (P18405 1-259): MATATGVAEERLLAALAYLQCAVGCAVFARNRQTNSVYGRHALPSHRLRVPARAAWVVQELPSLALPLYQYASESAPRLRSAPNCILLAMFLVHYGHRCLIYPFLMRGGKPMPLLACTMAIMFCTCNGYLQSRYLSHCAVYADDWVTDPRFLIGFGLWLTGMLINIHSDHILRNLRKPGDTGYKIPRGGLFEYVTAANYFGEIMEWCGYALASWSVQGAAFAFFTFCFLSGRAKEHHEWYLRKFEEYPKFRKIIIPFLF
The experiment in a line: Inhibition of human type 1 5α-reductase (conversion of testosterone to DHT, microsomes of baculovirus infected SF9 cells). It is filed as biochemical. Particulars: pH 7.0, 100 nM testosterone, 10 min preincubation, 10-120 min; read-out: IC50 Human Type 1 5AR. How it is done:
as §1, §2

As for `CCN(CC)C(=O)[C@H]1CC[C@H]2[C@@H]3CC[C@H]4N(C)C(=O)CC[C@]4(C)[C@H]3CC[C@]12C` [Compound 4-MA], in data set [1], the “inhibition of porcine granulosa cell 3BHSD” value is “potent inhibition”. Moreover, the “inhibition of bovine adrenal 3BHSD” value in data set [2] is “potent inhibition”. In addition, the hepatotoxicity entry in data set [3] is reported as “hepatotoxicity”. With `CC(C)(C)c1ccc(C(C)(C)C)c(NC(=O)[C@H]2CC[C@H]3[C@@H]4CC[C@H]5NC(=O)C=C[C@]5(C)[C@H]4CC[C@]23C)c1` [Compound 27, 17β-N-(2,5-Di-t-butyl)phenylcarbamoyl-4-aza-5α-androst-1-en-3-one], the Ki at Human Adrenal 3BHSD was in the range of 10 to 1000 nM. At Human Adrenal 3BHSD, `CN1C(=O)CC[C@]2(C)[C@H]3CC[C@]4(C)[C@@H](C(=O)Nc5cc(C(C)(C)C)ccc5C(C)(C)C)CC[C@H]4[C@@H]3CC[C@@H]12` [Compound 29, 17β-N-(2,5-Di-t-butyl)phenylcarbamoyl-4-methyl-4-aza-5α-androstan-3-one] had an inhibition constant (Ki) of 10 to 1000 nM. For the compound `CC(C)(C)c1ccc(C(F)(F)F)cc1NC(=O)[C@H]1CC[C@H]2[C@@H]3CC[C@H]4NC(=O)C=C[C@]4(C)[C@H]3CC[C@]12C` [Compound 24, 17β-N-(2-t-Butyl-5-trifluoromethyl)phenylcarbamoyl-4-aza-5α-androst-1-en-3-one], in data set [4], the IC50 fell in the range of 1 to 10 nM.

`C[C@]12C=CC(=O)N[C@@H]1CC[C@@H]1[C@@H]2CC[C@]2(C)[C@@H](C(=O)NC3(c4ccc5c(c4)OCO5)CCCCC3)CC[C@@H]12` [Compound 12, 17β-N-1-(3,4-Methylenedioxyphenyl)cyclohexylcarbamoyl-4-aza-5α-androst-1-en-3-one]: in data set [5], the IC50 is 10 to 1000 nM. The same compound gave a Ki on Human Adrenal 3BHSD of 10 to 1000 nM. On Human Adrenal 3BHSD, `CN1C(=O)CC[C@]2(C)[C@H]3CC[C@]4(C)[C@@H](C(=O)Nc5cc(C(F)(F)F)ccc5C(C)(C)C)CC[C@H]4[C@@H]3CC[C@@H]12` [Compound 26, 17β-N-(2-t-Butyl-5-trifluoromethyl)phenylcarbamoyl-4-methyl-4-aza-5α-androstan-3-one] showed a Ki of 10 to 1000 nM. The same measure, in the same setting: in the case of `CN1C(=O)CC[C@]2(C)[C@H]3CC[C@]4(C)[C@@H](C(=O)Nc5cc(C(F)(F)F)ccc5C(F)(F)F)CC[C@H]4[C@@H]3CC[C@@H]12` [Compound 23, 17β-N-(2,5-bis(Trifluoromethyl))phenylcarbamoyl-4-methyl-4-aza-5α-androstan-3-one] it was 10 to 1000 nM; in that of `CN1C(=O)CC[C@]2(C)[C@H]3CC[C@]4(C)[C@@H](C(=O)NC5(c6ccc(Cl)cc6)CCCC5)CC[C@H]4[C@@H]3CC[C@@H]12` [Compound 2, 17β-N-1-(4-Chlorophenyl)cyclopentylcarbamoyl-4-methyl-4-aza-5α-androstan-3-one], 10 to 1000 nM.
